Test results reported in patent publication US6281342A, “Pradimicin compounds” (Bristol-Myers Squibb Company, priority 1994, dated 2001).
Values after ≈ are worked out from the molar mass of the structure shown. Like-named read-outs stand apart in the source and are kept apart here.

Experiments:
[1] = system: Candida albicans A9540; assay: MIC, two-fold agar dilution, C. albicans A9540; type: cell-based
Protocol: (§1) Minimum inhibitory concentrations (MICs) of nine 4'-N-substituted pradimicin derivatives were determined by two-fold agar dilution method on phosphate-buffered yeast morphology agar (YMA, pH 7.0, Difco Laboratories). A 5-μl of fungal cell suspension containing 2×10^6 cells/ml (2×10^7 cells/ml for Trichophyton mentagrophytes) were spotted on the surface of the agar plates containing test compound. MICs were recorded after 40-hour incubation at 28° C. except for T. mentagrophytes, which required 60-hour incubation to produce visually evaluable growth on the drug-free control plates and were defined as the lowest antibiotic concentrations showing no growth or less than five discrete colonies per spot.
(§2) Medium: yeast morphology agar + 1/15 M phosphate buffer (pH 7.0)
(§3) Incubation conditions: 28° C., 40 hours (C. albicans ATCC 38247 & T.
(§4) Medium: Yeast morphology agar + 1/15 phosphate buffer (pH 7.0).

[2] = system: Candida albicans ATCC 32354; assay: MIC, two-fold agar dilution, C. albicans ATCC 32354; type: cell-based; conditions: ATCC32354, YMA pH 7.0, 28° C., 40 hours
Protocol: as §1, §2, §3, §4

[3] = system: Candida albicans 83-2-14; assay: MIC, two-fold agar dilution, C. albicans 83-2-14; type: cell-based; conditions: 83214, YMA pH 7.0, 28° C., 40 hours
Protocol: as §1, §2, §3, §4

[4] = system: Trichophyton mentagrophytes #4329; assay: MIC, two-fold agar dilution, T. mentagrophytes #4329; type: cell-based
Protocol: as §1, §2, §3
(§5) mentagrophytes #4329: 28° C., 60 hours).
as §4

[5] = system: Aspergillus fumigatus IAM 2034; assay: MIC, two-fold agar dilution, A. fumigatus IAM 2034; type: cell-based; conditions: IAM2034
Protocol: as §1, §2, §3, §4

[6] = system: Candida tropicalis IFO 10241; assay: MIC, two-fold agar dilution, C. tropicalis IFO 10241; type: cell-based; conditions: IFO10241, YMA pH 7.0, 28° C., 40 hours
Protocol: as §1, §2, §3, §4

[7] = system: Saccharomyces cerevisiae ATCC 9763; assay: MIC, two-fold agar dilution, S. cerevisiae ATCC 9763; type: cell-based; conditions: ATCC9763, YMA pH 7.0, 28° C., 40 hours
Protocol: as §1, §2, §3, §4

[8] = system: Candida albicans A9540; assay: animal or person; type: in vivo, male ICR mice infected with Candida albicans A9540; conditions: for responders at 6.3 mg/kg / responders at 12.5 mg/kg / responders at 25 mg/kg / responders at 50 mg/kg / S/T (No. of survivors/tested): 20th day post-infection; for responders at 6.3 mg/kg / responders at 12.5 mg/kg / responders at 25 mg/kg / responders at 50 mg/kg: read-out: S/T (No. of survivors/tested) (converted)
Protocol: (§6) The in vivo therapeutic efficacies of seven 4'-N-substituted pradimicin derivatives, KHM-1, KHM-2, KHM-3, KHM-4, KHM-5, KHM-6 and KHM-7 were evaluated in the mouse infected with Candida albicans A9540 and Aspergillus fumigatusIAM 2034. Groups of five specific-pathogen-free male ICR mice weighing 20-25 g at each dose level were intravenously infected with approximately 10 times the 50% lethal dose of C. albicans A9540 (1×10^6 cells/mouse) or A. fumigatus IAM 2034 (1×10^7 cells/mouse). Immediately after the fungal infection, test compounds dissolved with 10% DMSO in distilled water were intravenously given to the mouse at the dosed volume of 0.1 ml/10 g of body weight. […] Untreated control animals died 7 to 13 days post-infection.

[9] = Water solubility at neutral pH in PBS containing Ca^2+/Mg^2+; type: physicochemical; conditions: pbs with ca2+/mg2+; Table 3; water-solubility at neutral pH in phosphate buffered saline containing Ca^2+/Mg^2+
Protocol: The compounds of the invention have good water solubility. Typically, the water solubility is greater than 10 mg/ml when measured at neutral pH in PBS containing Ca^2+ /Mg^2+, preferably greater than 20 mg/ml.
^2) Water-solubility at neutral pH in phosphate buffered saline
containing Ca^2+ /Mg^2+.

[10] = system: Candida albicans ATCC 38247; assay: MIC, two-fold agar dilution, C. albicans ATCC 38247; type: cell-based; conditions: ATCC38247, YMA pH 7.0, 28° C., 60 hours (table footnote)
Protocol: as §1, §2, §3, §5, §4

[11] = system: Candida tropicalis 85-8; assay: MIC, two-fold agar dilution, C. tropicalis 85-8; type: cell-based; conditions: 858, YMA pH 7.0, 28° C., 40 hours
Protocol: as §1, §2, §3, §4

[12] = system: Cryptococcus neoformans IAM 4514; assay: MIC, two-fold agar dilution, C. neoformans IAM 4514; type: cell-based; conditions: IAM4514
Protocol: as §1, §2, §3, §4

[13] = system: Cryptococcus neoformans D49; assay: MIC, two-fold agar dilution, C. neoformans D49; type: cell-based; conditions: YMA pH 7.0, 28° C., 40 hours
Protocol: as §1, §2, §3, §4

[14] = system: Candida albicans IAM 4888; assay: MIC, two-fold agar dilution, C. albicans IAM 4888; type: cell-based; conditions: IAM4888, YMA pH 7.0, 28° C., 40 hours
Protocol: as §1, §2, §3, §4

[15] = system: Aspergillus fumigatus IAM 2034; assay: Therapeutic efficacy in Aspergillus fumigatus systemic infection in mice; type: in vivo, male ICR mice infected with Aspergillus fumigatus IAM 2034
Protocol: as §6

[16] = Candida albicans A9540, YMA pH 7.0, 28° C., 40 hours, read-out: MIC
[17] = Table 3, Candida albicans A9540, YMA, read-out: MIC Ca-4
[18] = Table 3, Trichophyton mentagrophytes #4329, YMA, read-out: MIC TM-4
[19] = Trichophyton mentagrophytes #4329, YMA pH 7.0, 28° C., 60 hours, read-out: MIC
[20] = Aspergillus fumigatus IAM 2034, YMA pH 7.0, 28° C., 40 hours, read-out: MIC
[21] = Table 3, Aspergillus fumigatus IAM 2034, YMA, read-out: MIC Af-3
[22] = Candida albicans, A9540, 480 h, C. albicans, mice, 6.3 mg/kg iv
[23] = Candida albicans, A9540, 480 h, C. albicans, mice, 12.5 mg/kg iv
[24] = Candida albicans, A9540, 480 h, C. albicans, mice, 25 mg/kg iv
[25] = Candida albicans, A9540, 480 h, C. albicans, mice, 50 mg/kg iv
[26] = Candida albicans, A9540, 480 h, Table 2, C. albicans, mice, iv, 95% confidence limits in parentheses, read-out: PD50 (50% protection dose)
[27] = Cryptococcus neoformans IAM 4514, YMA pH 7.0, 28° C., 40 hours, read-out: MIC
[28] = Table 3, Cryptococcus neoformans IAM 4514, YMA, read-out: MIC Cn-2

Row | SMILES | MIC [1, 16] [µg/mL] | MIC [1, 17] [µg/mL] | MIC [2] [µg/mL] | MIC [3] [µg/mL] | MIC [4, 18] [µg/mL] | MIC [4, 19] [µg/mL] | MIC [5, 20] [µg/mL] | MIC [5, 21] [µg/mL] | MIC [6] [µg/mL] | MIC [7] [µg/mL] | responders at 6.3 mg/kg [8, 22] [%] | responders at 12.5 mg/kg [8, 23] [%] | responders at 25 mg/kg [8, 24] [%] | responders at 50 mg/kg [8, 25] [%] | ED50 [8, 26] [mg/kg] | MIC [10] [µg/mL] | MIC [11] [µg/mL] | MIC [12, 27] [µg/mL] | MIC [12, 28] [µg/mL] | MIC [13] [µg/mL] | other results
1 | COc1cc(O)c2c(c1)C(=O)c1c(cc3c(c1O)-c1c(cc(C)c(C(=O)N[C@H](CO)C(=O)O)c1O)[C@H](O[C@@H]1O[C@H](C)[C@H](N)[C@H](O[C@@H]4OC[C@@H](O)[C@H](O)[C@H]4O)[C@H]1O)[C@H]3O)C2=O [Pradimicin FA-2, reference compound] | 6.3 (≈ 7.48 µM) | 6.3 (≈ 7.48 µM) | 3.1 (≈ 3.68 µM) | 6.3 (≈ 7.48 µM) | 3.1 (≈ 3.68 µM) | 3.1 (≈ 3.68 µM) | 1.6 (≈ 1.9 µM) | 1.6 (≈ 1.9 µM) | 6.3 (≈ 7.48 µM) | 1.6 (≈ 1.9 µM) | 40 | 80 | 100 | 100 | 7.7 | 1.6 (≈ 1.9 µM) | 6.3 (≈ 7.48 µM) | 1.6 (≈ 1.9 µM) | 1.6 (≈ 1.9 µM) | 1.6 (≈ 1.9 µM) | ED50 ([8]; 480 h, Table 3, Candida albicans A9540, iv, read-out: PD50 (mice) Ca-4): 7.4 mg/kg; solubility [9]: 20 µg/mL (≈ 23.7 µM)
2 | COc1cc(O)c2c(c1)C(=O)c1c(cc3c(c1O)-c1c(cc(C)c(C(=O)N[C@H](C)C(=O)O)c1O)[C@H](O[C@@H]1O[C@H](C)[C@H](N(C)C#N)[C@H](O[C@@H]4OC[C@@H](O)[C@H](O)[C@H]4O)[C@H]1O)[C@H]3O)C2=O [KHM-1, 4'-N-Cyanogradimicin A] | 3.1 (≈ 3.58 µM) | 3.1 (≈ 3.58 µM) | 3.1 (≈ 3.58 µM) | 3.1 (≈ 3.58 µM) | 25 (≈ 28.9 µM) | 25 (≈ 28.9 µM) | 12.5 (≈ 14.4 µM) | 12.5 (≈ 14.4 µM) | 12.5 (≈ 14.4 µM) | 1.6 (≈ 1.85 µM) |  |  |  |  | 13 | 1.6 (≈ 1.85 µM) | 12.5 (≈ 14.4 µM) | 3.1 (≈ 3.58 µM) | 3.1 (≈ 3.58 µM) | 3.1 (≈ 3.58 µM) | MIC [14]: 3.1 µg/mL (≈ 3.58 µM); S/T (No. of survivors/tested) ([8]; C. albicans, mice, 6.3 mg/kg iv): 1/5; S/T (No. of survivors/tested) ([8]; C. albicans, mice, 12.5 mg/kg iv): 3/5; S/T (No. of survivors/tested) ([8]; C. albicans, mice, 25 mg/kg iv): 4/5; S/T (No. of survivors/tested) ([8]; C. albicans, mice, 50 mg/kg iv): 5/5; S/T (No. of survivors/tested) ([15]; A. fumigatus, mice, 6.3 mg/kg iv, 20th day post-infection): 0.5; S/T (No. of survivors/tested) ([15]; A. fumigatus, mice, 12.5 mg/kg iv, 20th day post-infection): 2/5; S/T (No. of survivors/tested) ([15]; A. fumigatus, mice, 25 mg/kg iv, 20th day post-infection): 0/5; S/T (No. of survivors/tested) ([15]; A. fumigatus, mice, 50 mg/kg iv, 20th day post-infection): 1/5; ED50 ([15]; Aspergillus fumigatus, IAM2034, iv, 480 h, read-out: PD50 (50% protection dose)): > 50 mg/kg; ED50 ([15]; IAM2034, 480 h, Table 3, Aspergillus fumigatus IAM 2034, iv, read-out: PD50 (mice) Af-3): > 50 mg/kg
3 | CN[C@@H]1[C@H](O[C@@H]2OC[C@@H](O)[C@H](O)[C@H]2O)[C@@H](O)[C@H](O[C@H]2c3cc(C)c(C(=O)N[C@H](CO)C(=O)O)c(O)c3-c3c(cc4c(c3O)C(=O)c3cc(OC)cc(O)c3C4=O)[C@@H]2O)O[C@@H]1C [Pradimicin FA-1, reference compound] | 6.3 (≈ 7.35 µM) | 6.3 (≈ 7.35 µM) | 3.1 (≈ 3.62 µM) | 6.3 (≈ 7.35 µM) | 1.6 (≈ 1.87 µM) | 1.6 (≈ 1.87 µM) | 1.6 (≈ 1.87 µM) | 1.6 (≈ 1.87 µM) | 6.3 (≈ 7.35 µM) | 1.6 (≈ 1.87 µM) | 0 | 20 | 80 | 100 | 18 | 1.6 (≈ 1.87 µM) | 6.3 (≈ 7.35 µM) | 0.8 (≈ 0.934 µM) | 0.8 (≈ 0.934 µM) | 1.6 (≈ 1.87 µM) | solubility [9]: 260 µg/mL (≈ 303 µM); responders at 6.3 mg/kg ([15]; Aspergillus fumigatus, IAM2034, 480 h, A. fumigatus, mice, 6.3 mg/kg iv, 20th day post-infection, read-out: S/T (No. of survivors/tested) (converted)): 0%; responders at 12.5 mg/kg ([15]; Aspergillus fumigatus, IAM2034, 480 h, A. fumigatus, mice, 12.5 mg/kg iv, 20th day post-infection, read-out: S/T (No. of survivors/tested) (converted)): 20%; responders at 25 mg/kg ([15]; Aspergillus fumigatus, IAM2034, 480 h, A. fumigatus, mice, 25 mg/kg iv, 20th day post-infection, read-out: S/T (No. of survivors/tested) (converted)): 40%; responders at 50 mg/kg ([15]; Aspergillus fumigatus, IAM2034, 480 h, A. fumigatus, mice, 50 mg/kg iv, 20th day post-infection, read-out: S/T (No. of survivors/tested) (converted)): 80%; ED50 ([15]; Aspergillus fumigatus, IAM2034, 480 h, Table 2, A. fumigatus, mice, iv, 95% confidence limits in parentheses, read-out: PD50 (50% protection dose)): 27 mg/kg
